The conditions of this data set: from C=CCCCCCC[C@@H](NC(=O)C1CC(OC(=O)N2Cc3ccccc3C2)CN1C(=O)N(C)CC=C)B1O[C@@H]2C[C@@H]3C[C@@H](C3(C)C)[C@]2(C)O1; rcm bond; Grubbs 2nd generation catalyst; toluene; 6.5 mM; 65.0 °C.

In turn, `CN1CC=CCCCCCC[C@H](B2O[C@@H]3C[C@@H]4C[C@@H](C4(C)C)[C@]3(C)O2)NC(=O)C2CC(OC(=O)N3Cc4ccccc4C3)CN2C1=O` (stereo partly shown) yielded a ring closure, yield of all isomers of 40%.

(Values after patent US20100120716.)
